Data as given in patent publication US20050065185A1, “Heterocyclylalkoxy-, -alkylthio- and -alkylaminobenzazole derivatives as 5-hydroxytryptamine-6 ligands” (Wyeth, priority 2001, published 2005).
Counter-ions that a name gives are not always drawn.

Tests used:
[1] = target: T1, human cloned 5-HT6 receptors (Homo sapiens, UniProt P50406); assay: 5-HT6 binding affinity, [3H]-LSD displacement on membranes of Hela cells expressing human cloned 5-HT6 receptors
T1 construct: expressed in transfected cells; host or cells: HeLa cells
Method: The affinity of test compounds for the serotonin 5-HT6 receptor is evaluated in the following manner. Cultured Hela cells expressing human cloned 5-HT6 receptors are harvested and centrifuged at low speed (1,000×g) for 10.0 min to remove the culture media. The harvested cells are suspended in half volume of fresh physiological phosphate buffered saline solution and recentrifuged at the same speed. This operation is repeated. The collected cells are then homogenized in ten volumes of 50 mM Tris.HCl (pH 7.4) and 0.5 mM EDTA. The homogenate is centrifuged at 40,000×g for 30.0 min and the precipitate is collected. The obtained pellet is resuspended in 10 volumes of Tris.HCl buffer and recentrifuged at the same speed. The final pellet is suspended in a small volume of Tris.HCl buffer and the tissue protein content is determined in aliquots of 10-25 μl volumes. Bovine Serum Albumin is used as the standard in the protein determination according to the method described in Lowry et al., J. Biol. Chem., 193:265 (1951). The volume of the suspended cell membranes is adjusted to give a tissue protein concentration of 1.0 mg/ml of suspension. The prepared membrane suspension (10 times concentrated) is aliquoted in 1.0 ml volumes and stored at −70° C. until used in subsequent binding experiments.
The reaction is allowed to proceed in the dark for 120 min at room temperature, at which time, the bound ligand-receptor complex is filtered off on a 96 well unifilter with a Packard Filtermate® 196 Harvester. The bound complex caught on the filter disk is allowed to air dry and the radioactivity is measured in a Packard TopCount® equipped with six photomultiplier detectors, after the addition of 40.0 μl Microscint®-20 scintillant to each shallow well. The unifilter plate is heat-sealed and counted in a PackardTopCount® with a tritium efficiency of 31.0%.
Binding in the presence of varying concentrations of test compound is expressed as a percentage of specific binding in the absence of test compound. The results are plotted as log % bound versus log concentration of test compound. […] A linear regression line of data points is plotted, from which the IC50 value is determined and the Ki value is determined based upon the following equation: Ki=IC50/(1+L/KD) where L is the concentration of the radioactive ligand used and KD is the dissociation constant of the ligand for the receptor, both expressed in nM.

T1 sequence (P50406 whole entry): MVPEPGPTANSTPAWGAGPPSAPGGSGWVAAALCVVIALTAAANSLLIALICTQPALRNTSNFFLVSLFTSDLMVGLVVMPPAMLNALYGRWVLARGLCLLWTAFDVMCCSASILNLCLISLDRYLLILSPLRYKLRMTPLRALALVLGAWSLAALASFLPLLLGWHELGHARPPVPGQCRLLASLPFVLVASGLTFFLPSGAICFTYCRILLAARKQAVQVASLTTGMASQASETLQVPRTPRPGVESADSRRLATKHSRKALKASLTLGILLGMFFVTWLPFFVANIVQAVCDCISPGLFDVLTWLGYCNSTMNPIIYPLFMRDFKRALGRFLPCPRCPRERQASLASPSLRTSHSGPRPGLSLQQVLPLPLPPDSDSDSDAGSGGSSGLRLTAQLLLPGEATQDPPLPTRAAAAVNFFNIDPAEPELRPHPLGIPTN

| melting point | Ki [1] | Compound |
| --- | --- | --- |
| 204 to 206 °C | – | O=S(=O)(c1ccc(Cl)s1)n1ccc2c(OC[C@@H]3CCCN3)cccc21 (as salt: hydrochloride) [Example 4, 1-[(5-chlorothien-2-yl)sulfonyl]-4-[(2S)-pyrrolidin-2-ylmethoxy]-1H-indole] |
| 153 to 155 °C | – | O=S(=O)(c1ccccc1F)n1ccc2c(OC[C@@H]3CCCN3)cccc21 (as salt: hydrochloride) [Example 5, 1-[(2-fluorophenyl)sulfonyl)-4-[(2S)-pyrrolidin-2-ylmethoxy]-1H-indole] |
| 160 to 162 °C | – | O=S(=O)(c1cccc(F)c1)n1ccc2c(OC[C@@H]3CCCN3)cccc21 (as salt: hydrochloride) [Example 6, 1-[(3-fluorophenyl)sulfonyl)-4-[(2S)-pyrrolidin-2-ylmethoxy]-1H-indole] |
| 258 °C (dec.) | – | O=S(=O)(c1ccc(F)cc1)n1ccc2c(OC[C@@H]3CCCN3)cccc21 (as salt: hydrochloride) [Example 7, 1-[(4-fluorophenyl)sulfonyl)-4-[(2S)-pyrrolidin-2-ylmethoxy]-1H-indole] |
| 115 °C (dec.) | – | COc1ccc(S(=O)(=O)n2ccc3c(OC[C@@H]4CCCN4)cccc32)cc1OC (as salt: hydrochloride) [Example 8, 1-[(3,4-dimethoxyphenyl)sulfonyl)-4-[(2S)-pyrrolidin-2-ylmethoxy]-1H-indole] |
| 150 °C (dec.) | – | Nc1ccc(S(=O)(=O)n2ccc3c(OC[C@@H]4CCCN4)cccc32)cc1 (as salt: hydrochloride) [Example 9] |
| > 255 °C (dec.) | – | O=S(=O)(c1ccccc1Cl)n1ncc2c(OC[C@@H]3CCCN3)cccc21 (as salt: hydrochloride) [Example 17, 1-[(2-chlorophenyl)sulfonyl]-4-[(2S)-pyrrolidin-2-ylmethoxy]-1H-indazole] |
| 145 to 148 °C | – | O=S(=O)(c1ccccc1F)n1ncc2c(OC[C@@H]3CCCN3)cccc21 (as salt: hydrochloride) [Example 18, 1-[(2-fluorophenyl)sulfonyl]-4-[(2S)-pyrrolidin-2-ylmethoxy]-1H-indazole] |
| 195 °C | – | O=S(=O)(c1ccc(Cl)s1)n1ncc2c(OC[C@@H]3CCCN3)cccc21 (as salt: hydrochloride) [Example 19, 1-[(5-chlorothien-2-yl)sulfonyl]-4-[(2S)-pyrrolidin-2-ylmethoxy]-1H-indazole] |
| 150 to 155 °C | – | Nc1ccc(S(=O)(=O)n2ncc3c(OC[C@@H]4CCCN4)cccc32)cc1 (as salt: hydrochloride) [Example 20, 4-({4-[(2S)-pyrrolidin-2-ylmethoxy}-1H-indazol-1-yl}sulfonyl)aniline] |
| 220 °C (dec.) | – | Nc1ccc(S(=O)(=O)n2ncc3c(OC[C@@H]4CCCN4)cccc32)cc1Cl (as salt: hydrochloride) [Example 21, 2-chloro-4-({4-[(2S)-pyrrolidin-2-ylmethoxy]-1H-indazol-1-yl}sulfonyl)aniline] |
| – | 6 nM | O=S(=O)(c1ccccc1)n1ccc2c(OC[C@@H]3CCCN3)cccc21 [Example 3, 1-(Phenylsulfonyl)-4-[(2S)-pyrrolidin-2-ylmethoxy]-1H-indole hydrochloride] |
| – | 7 nM | O=S(=O)(c1ccc(Cl)s1)n1ccc2c(OC[C@@H]3CCCN3)cccc21 [Example 4, 1-[(5-chlorothien-2-yl)sulfonyl]-4-[(2S)-pyrrolidin-2-ylmethoxy]-1H-indole] |
| – | 2 nM | O=S(=O)(c1ccccc1F)n1ccc2c(OC[C@@H]3CCCN3)cccc21 [Example 5, 1-[(2-fluorophenyl)sulfonyl)-4-[(2S)-pyrrolidin-2-ylmethoxy]-1H-indole] |
| – | 8 nM | O=S(=O)(c1cccc(F)c1)n1ccc2c(OC[C@@H]3CCCN3)cccc21 [Example 6, 1-[(3-fluorophenyl)sulfonyl)-4-[(2S)-pyrrolidin-2-ylmethoxy]-1H-indole] |
| – | 31 nM | O=S(=O)(c1ccc(F)cc1)n1ccc2c(OC[C@@H]3CCCN3)cccc21 [Example 7, 1-[(4-fluorophenyl)sulfonyl)-4-[(2S)-pyrrolidin-2-ylmethoxy]-1H-indole] |
| – | 95 nM | COc1ccc(S(=O)(=O)n2ccc3c(OC[C@@H]4CCCN4)cccc32)cc1OC [Example 8, 1-[(3,4-dimethoxyphenyl)sulfonyl)-4-[(2S)-pyrrolidin-2-ylmethoxy]-1H-indole] |
| – | 1 nM | Nc1ccc(S(=O)(=O)n2ccc3c(OC[C@@H]4CCCN4)cccc32)cc1 [Example 9] |
| – | 106 nM | O=S(=O)(c1ccccc1)n1ccc2c(OC[C@H]3CCCN3)cccc21 [Example 11, 1-(Phenylsulfonyl)-4-[(2R)-]pyrrolidin-2-ylmethoxy]-1H-indole hydrochloride] |
| – | 7 nM | O=S(=O)(c1ccccc1)n1ncc2c(OC[C@@H]3CCCN3)cccc21 [Example 15, 1-(Phenylsulfonyl)-4-[(2S)-pyrrolidin-2-ylmethoxy]-1H-indazole trifluoroacetic acid salt] |
| 217 to 218 °C | 85 nM | O=S(=O)(c1cccc2cccnc12)n1ncc2c(OC[C@@H]3CCCN3)cccc21 [Example 16, 8-({4-[(2S)-pyrrolidin-2-ylmethoxy]-1H-indazol-1-yl}sulfonyl)quinoline] |
| – | 5 nM | O=S(=O)(c1ccccc1Cl)n1ncc2c(OC[C@@H]3CCCN3)cccc21 [Example 17, 1-[(2-chlorophenyl)sulfonyl]-4-[(2S)-pyrrolidin-2-ylmethoxy]-1H-indazole] |
| – | 8 nM | O=S(=O)(c1ccccc1F)n1ncc2c(OC[C@@H]3CCCN3)cccc21 [Example 18, 1-[(2-fluorophenyl)sulfonyl]-4-[(2S)-pyrrolidin-2-ylmethoxy]-1H-indazole] |
| – | 5 nM | O=S(=O)(c1ccc(Cl)s1)n1ncc2c(OC[C@@H]3CCCN3)cccc21 [Example 19, 1-[(5-chlorothien-2-yl)sulfonyl]-4-[(2S)-pyrrolidin-2-ylmethoxy]-1H-indazole] |
| – | 9 nM | Nc1ccc(S(=O)(=O)n2ncc3c(OC[C@@H]4CCCN4)cccc32)cc1 [Example 20, 4-({4-[(2S)-pyrrolidin-2-ylmethoxy}-1H-indazol-1-yl}sulfonyl)aniline] |
| – | 16 nM | Nc1ccc(S(=O)(=O)n2ncc3c(OC[C@@H]4CCCN4)cccc32)cc1Cl [Example 21, 2-chloro-4-({4-[(2S)-pyrrolidin-2-ylmethoxy]-1H-indazol-1-yl}sulfonyl)aniline] |
